Here are results for one compound from patent publication US9982033B2, “Factor VIII polypeptide titers in cell cultures” (Novo Nordisk A/S, priority 2007, dated 2018).

Assay [1] concerns Factor VIII producing cells. The experiment in a line: Supplementing serum-free cell culture medium of Factor VIII producing cells with OPLS (high-cell density perfusion model). The note with it: for Factor VIII productivity / Factor VIII protein specific activity: 24 hours, 35° C. The assay is classed as cell-based, Chinese Hamster. From the text: Cell line: The cell line used for transfection, dhfr− CHO cells DUKX-B11 cells (Urlaub, G. & Chasin, L. A. (1980) Proc. Natl. Acad. Sci. USA 77, 4216-4220), was adapted to grow in suspension cultures using serum-free medium supplemented with ribonucleosides and deoxyribonucleosides.
Expression vector: Factor VIII transcription is achieved using an adenovirus-SV40 promoter and a selection by a di-hydrofolate reductase selection marker. The expressed Factor VIII molecule consist of the heavy chain (HC) and light chain (LC) of Factor VIII connected with a small linker derived from the B-domain. The B-domain has been removed, since this allows for higher expression of Factor VIII and the biological activity of Factor VIII is retained.
Cell culturing during serum free medium supplementation experiments: For media supplement experiments cells were cultivated in a high-cell density perfusion model in 50 mL shaker tubes with vented cap at 35° C. in serum free medium, as described below. Cells were cultivated in large shaker flasks at 37° C. Cell viability was measured at cell harvest, and this was always >95%. Harvested cells were re-suspended into fresh medium. 2.5 mL of the harvested and re-suspended cells was added to 2.5 mL of fresh medium containing the supplement to give a total volume of 5 mL, with a concentration of 1×10^7 cells/mL. Shaker tubes were then placed in shaker at 35° C. and 250 rpm. After 24 hours, samples were assayed for cell density, viability, CoA, ELISA and Factor VIII protein integrity by Western blot.
CoA assay (Factor VIII activity assay): In the presence of calcium and phospholipids, Factor X is activated to Factor Xa by Factor IXa. This generation is greatly stimulated by Factor VIII, which may be considered as a cofactor in this reaction. By using optimal amounts of Ca^2+ and phospholipids and an excess of Factors IXa and X, the rate of activation of Factor X is solely dependent on the amount of Factor VIII. Factor Xa hydrolyses the chromogenic substrate S-2765 thus liberating the chromophoric group, pNA. The colour is then read photometrically at 405 nm. The generated Factor Xa and thus the intensity of colour is proportional to the Factor VIII activity in the sample. Hydrolysis of S-2765 by thrombin formed is prevented by the addition of the synthetic thrombin inhibitor, I-2581, together with the substrate (Chromogenix Coatest SP Factor VIII, diaPharma)
ELISA: Strip wells are pre-coated with sheep polyclonal antibody to human Factor VIII. Samples are diluted and applied to the wells. The Factor VIII antigen present binds to the coated antibody. After washing away unbound material, peroxidase-labeled sheep detecting antibody is applied and allowed to bind to the captured Factor VIII. The wells are again washed and a solution of TMB (the peroxidase substrate tetramethylbenzidine) is applied and allowed to react for a fixed period of time. A blue color develops which changes to yellow upon quenching the reaction with acid. The color formed is measured spectrophotometrically in a microplate reader at 450 nm. The absorbance at 450 nm is directly proportional to the quantity of Factor VIII antigen captured onto the well (VisuLize, FVIII antigen kit, Affinity biologicals). The assay is calibrated using purified B domain deleted Factor VIII.
OPLS was supplemented to serum free cell culture medium in the indicated concentration according to the experimental details described under materials and methods. The results can be seen from the below Table 3 and from FIGS. 2A and 2B.

Assay [2] deals with BDD Factor VIII producing cells (1C5-SF cell line). The experiment in a line: Supplementing serum-free medium of BDD Factor VIII producing cells with O-phospho-L-serine and/or a plant hydrolysate. The assay is classed as cell-based. The note with it: O-phospho-L-serine 20 mM and/or plant hydrolysate 5 mg/ml, four days after seeding.
Protocol: ELISA: Strip wells are pre-coated with sheep polyclonal antibody to human Factor VIII. Samples are diluted and applied to the wells. The Factor VIII antigen present binds to the coated antibody. After washing away unbound material, peroxidase-labeled sheep detecting antibody is applied and allowed to bind to the captured Factor VIII. The wells are again washed and a solution of TMB (the peroxidase substrate tetramethylbenzidine) is applied and allowed to react for a fixed period of time. A blue color develops which changes to yellow upon quenching the reaction with acid. The color formed is measured spectrophotometrically in a microplate reader at 450 nm. The absorbance at 450 nm is directly proportional to the quantity of Factor VIII antigen captured onto the well (VisuLize, FVIII antigen kit, Affinity biologicals). […]
F25 ELISA: ELISA: Strip wells are pre-coated with sheep polyclonal antibody to human Factor VIII. […] The color formed is measured spectrophotometrically in a microplate reader at 450 nm. The absorbance at 450 nm is directly proportional to the quantity of Factor VIII antigen captured onto the well. […]
The total Factor VIII antigen content of each culture was determined by sandwich ELISA. […]
[3] abbreviates: OPLS 0.03 mM in serum free medium.
The mark [4] stands for this setting: OPLS 0.1 mM in serum free medium.
[5] abbreviates: OPLS 0.3 mM in serum free medium.
Setting [6] is: OPLS 10 mM in serum free medium.
Setting [7] is: OPLS 30 mM in serum free medium.

For `N[C@@H](COP(=O)(O)O)C(=O)O` [OPLS, O-Phospho-L-Serine], the “Factor VIII productivity” value in assay [1] (setting [3]) was determined as 0.068 pcd; in assay [1] (setting [4]) it was 0.062 pcd; in assay [1] (setting [5]), 0.052 pcd; in assay [1] (OPLS 1 mM in serum free medium), 0.058 pcd; in assay [1] (OPLS 3 mM in serum free medium), 0.066 pcd; in assay [1] (setting [6]) it was 0.10 pcd. The “Factor VIII productivity” value in assay [1] (setting [7]) turned out to be 0.18 pcd. Moreover, the “Factor VIII protein specific activity” value was 11.8 U/microg in assay [1] (setting [3]); 12.8 U/microg in assay [1] (setting [4]); 12.2 U/microg in assay [1] (setting [5]); 12.6 U/microg in assay [1] (OPLS 1 mM in serum free medium); 15.8 U/microg in assay [1] (OPLS 3 mM in serum free medium); 15.4 U/microg in assay [1] (setting [6]). In assay [1] (setting [7]), the “Factor VIII protein specific activity” value worked out at 15.0 U/microg. Besides, the “specific productivity of Factor VIII producing cells” value in assay [1] (conclusion in words, FIG. 2A) is recorded as “increases”. In assay [1] (conclusion in words, FIG. 2B), the “specific activity of Factor VIII” value is listed as “increases”. The “proportion of Factor VIII with intact heavy chain C-terminal in the medium” value in assay [2] (F25 ELISA versus total Factor VIII antigen) is “increased”. Besides, in assay [2] (CDM4CHO medium, FIG. 3A-C), the “quality of recombinant Factor VIII from cell cultures (specific activity)” value was “improved”. In addition, the “yield of recombinant Factor VIII from cell cultures” value in assay [2] (CDM4CHO medium, FIG. 3A-C) was “improved”.
